# From patent US12016860B2, “Combination therapies with Cbl-b inhibitor compounds” (Nurix Therapeutics, Inc., priority 2021, dated 2024)
# Experiments:
# orthotopic 4T1 tumors = assay: Orthotopic 4T1 model, combination with anti-PD-1 antibody; type: in vivo, mice
# Method: This example provides assays and results for treating tumor models in vivo with combinations of Cbl-b compounds and anti-PD1 antibodies as described herein. The antibody is a mouse anti-PD1 RMP1-14 antibody, useful in mouse in vivo assays as model for administration of human PD-1 axis antagonists for treatment of human cancer.
# Beginning on Day 9, tumor volumes and body weights were measured twice weekly. […] Statistical significance of differences in the number of colonies between groups was evaluated using Kruskal-Wallis one-way ANOVA with Dunn's multiple comparisons test.
# BT549 tumor cell line = assay: Caspase 3/7 apoptosis Incucyte assay with paclitaxel, BT549; type: cell-based; conditions: 0.1 μM compound 23, 0.002 μM paclitaxel, vs 0.05% DMSO, combination also vs single agents p<0.0001
# Method: BT549 cells were seeded in duplicate into tissue culture treated black-sided, clear-bottom 96-well plates at 5,000 ^cells/well and allowed to adhere and establish for 24 h. Cells were treated with DMSO, compound 23, or Paclitaxel either alone or in combination and were labelled with 1× Essen Bioscience IncuCyte® Caspase-3/7 Green Reagent (final concentration 5 μM). Treated plates were imaged every 2 hours for 48 hours with the IncuCyte® S3 Live-Cell Analysis System. At each timepoint, one image per well was taken in both brightfield and FITC channels on the IncuCyte® S3 Live-Cell Analysis System. Images were analyzed for number of green objects per mm^2 using the IncuCyte S3 v2017A software.
# Using a caspase 3/7 apoptosis Incucyte® assay, the effect of compound 23, paclitaxel and the combination of compound 23 and paclitaxel on tumor cell apoptosis was assessed in the BT549 tumor cell line (a mammary gland carcinoma) in vitro.
# Raji cells [1] = assay: Raji model in SCID mice with NK cell depletion (anti-asialo-GM1); type: in vivo; conditions: p<0.0001
# Method: Three additional groups of mice were treated in the presence of depleting antibodies for NK cells (anti-asialo-GM1).
# CT26 tumors = assay: nCounter Mouse PanCancer Immune Profiling of CT26 tumors from treated mice; type: in vivo
# Text: In this example, the gene expression changes induced in tumors from mice treated with compound 23 studies were investigated. To perform this assessment, the nCounter PanCancer Immune Profiling Panel was used, which is a multiplexed gene expression panel developed by NanoString Technologies that measures expression of 770 immune and cancer related genes (Eastel et al., 2019, Expert Review of Molecular Diagnostics, 19(7):591-598). This technology is a unique gene expression tool that covers many important features of the immune response in the tumor microenvironment and was used to facilitate the understanding of immune related changes in tumors treated with compound 23.
# In FIG. 4A, CT26 tumors were harvested after 4 doses and after 19 doses of compound 23 or vehicle and gene expression was directly measured using the nCounter Mouse PanCancer Immune Profiling Panel. Analysis was performed using the nSolver 4.0 and the nCounter Advanced Analysis software comparing gene expression in compound 23 to vehicle treated tumors. […] Statistical significance of differences in mean cell type scores between compound 23 and vehicle treated groups was evaluated using Mann-Whitney test (*P≤0.05, **P≤0.01, and ***P≤0.001).
# (§1) In FIG. 4B, CT26 tumors were harvested after 4 treatment doses and gene expression was directly measured using the nCounter Mouse PanCancer Immune Profiling Panel. Analysis was performed using the nSolver 4.0 and the nCounter Advanced Analysis software comparing gene expression in compound 23 to vehicle treated tumors. As indicated in the titles above each panel, scatter plots of individual Pathway Signature Scores of vehicle and compound 23 treated tumors are shown. Statistical significance of differences in Pathway Signature Scores between compound 23 and vehicle treated groups was evaluated using Mann-Whitney test (*P≤0.05, **P≤0.01, and ***P≤0.001).
# as §1, with “FIG. 4C,” for “FIG. 4B,”, “after 19” for “after 4”
# Raji cells [2] = assay: Raji human non-Hodgkin's lymphoma model in SCID mice, combination with rituximab
# Method: Female CB17 mice with severe combined immunodeficiency (SCID) were intravenously (IV) injected in the tail vein with Raji cells on Day 0 and treated from Day 5 to Day 37 by administration of either: vehicle (0.5% methylcellulose, 0.2% Polysorbate 80 in deionized water+1 eq HCl) daily, orally (PO) or compound 23 at 30 mg/kg daily, PO. Anti-CD20 antibody (rituximab) at 20 mg/kg was intraperitoneally (IP) administered on Day 5, 10, and 15, either alone or in combination with compound 23 at 30 mg/kg daily, PO.
compound,measurement,setting,value
C[C@H]1CCCN(Cc2cc3c(c(C(F)(F)F)c2)CN(c2cccc([C@]4(c5nncn5C)C[C@@H](C)C4)c2)C3=O)C1 [compound 23],interaction with PD-1 antibody blockade,orthotopic 4T1 tumors,synergizes
same,metastatic lung tumor burden,"orthotopic 4T1 tumors; lungs harvested Day 28, single agents vs vehicle, combination vs vehicle or either single agent",reduced metastatic lung tumor burden
same,primary tumor volume,"orthotopic 4T1 tumors; single agents vs vehicle, combination vs vehicle or either single agent",significantly smaller primary tumors
same,tumor cell apoptosis (caspase 3/7),BT549 tumor cell line,did not undergo a significant increase in apoptosis
same,effect of NK cell depletion on activity (survival),Raji cells [1],abrogates
same,"T-cell, B cell, NK cell and adaptive immune function pathway scores",CT26 tumors; after 4 doses,not significant
same,"gene expression in innate immune signaling pathways (dendritic cell function, macrophage function, chemokine receptors and pathways)",CT26 tumors; after 4 doses,significant gene expression changes
same,cytotoxic cell infiltration score,"CT26 tumors; after 4 doses, 30 mg/kg daily PO, vs vehicle, P=0.1061",clear trend of increased infiltration
same,infiltration of tumor infiltrating lymphocytes (TIL) score,"CT26 tumors; after 4 doses, 30 mg/kg daily PO, vs vehicle, P=0.6679",clear trend of increased infiltration
same,T-cell infiltration score,"CT26 tumors; after 4 doses, 30 mg/kg daily PO, vs vehicle, P=0.7551",clear trend of increased infiltration
same,immune related pathway scores,CT26 tumors; after 19 doses,significantly enhanced function
same,cytotoxic cell infiltration score,"CT26 tumors; after 19 doses PO, vs vehicle, P=0.0002",significant increases
same,TIL infiltration score,"CT26 tumors; after 19 doses PO, vs vehicle, P=0.0044",significant increases
same,T-cell infiltration score,"CT26 tumors; after 19 doses PO, vs vehicle, P=0.0098",significant increases
same,survival compared to untreated mice,"Raji cells [2]; compound 23 30 mg/kg daily PO, rituximab 20 mg/kg IP Day 5, 10, 15, p<0.0001",significantly higher
same,survival compared to mice treated with the combination of compound 23 and rituximab,Raji cells [2]; p<0.0001,significantly lower
